Here are results for 19 compounds from PubChem BioAssay (NCI).

Structures are written as SMILES. Several values for one entry are separate records, joined by “and”; a condition that tells them apart may be missing. Equal values may be shown once.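 In this assay, cells in 96-well plates receive the compound at five concentrations for 48 hours. Endpoints are linearly interpolated between the surrounding concentrations. GI50 = concentration required for 50% inhibition of growth. TGI denotes the concentration required for complete inhibition of growth.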

For the first assay, the system named is HCC-2998 colon. Nature of the assay: NCI-60 cell line screen, 48 h.
Turning to `O=C(CSC(c1ccccc1)c1ccccc1)N/N=C/c1ccc(Cl)cc1Cl`, the GI50 is 26.9 µM and the TGI was found to be 71 µM.

A further assay deals with SW-620 colon. Nature of the assay: NCI-60 cell line screen, 48 h.
Regarding `CC(C)CNC(=O)O`, the TGI is more than 100 µM.

In the case of `CCC(C)(C)c1ccc(OCCCCCCN2CCNCC2)cc1`, the GI50 is 1.95 µM and the TGI was determined as 3.97 µM.

In the case of `O=C(Nc1ccc(-n2cc(-c3ccncc3)c(-c3ccc(Cl)c(O)c3)n2)cc1)Nc1ccc(Cl)c(C(F)(F)F)c1`, the GI50 is 2.48 µM and the TGI was found to be 5.04 µM.

As for `Cc1cc(S(=O)(=O)N/N=C(\Sc2cc(Cl)c(C)cc2S(N)(=O)=O)c2ccc(Cl)cc2)c(Cl)cc1Cl`, the GI50 was 40.4 µM and the TGI is more than 100 µM.

Regarding `COc1ccc(C(=O)COc2cccc(/C=C3\Oc4ccc5ccccc5c4C3=O)c2)cc1`, the GI50 was 1.87 µM and the TGI turned out to be 3.77 µM.

`N#CC(=NCCO)C1=C(O)c2ccccc2C1=O` showed a TGI of more than 100 µM.

Regarding `CC(=O)/C=C/c1ccc(C#Cc2ccccc2)s1`, the GI50 is 19.4 µM and the TGI came to 38.1 µM.

`CC(C)OC(=O)NNc1cc(Cl)ccc1Cl` registered a TGI of more than 100 µM.

For `Cc1cc(C2CC(O)C(CO)O2)cc2c(=O)[nH]c(N)nc12` (stereo not given), the GI50 is more than 100 µM and the TGI was more than 100 µM.

Compound `COc1cc2c(cc1O)C1Cc3ccc(OC)c(O)c3C(C2)N1C` (stereo not given) showed a TGI of more than 100 µM.

Regarding `COc1cccc(/C(COc2ccc3c(c2)oc(=O)c2cc(OC)ccc23)=N/O)c1`, the GI50 was 3.9 µM and the TGI is more than 100 µM.

For `N=C(N)SCc1cccc(-c2nc3ccccc3c(=O)o2)c1`, the TGI is more than 100 µM.

`CC(C)N=c1cc2n(-c3ccc(Cl)cc3)c3ccccc3nc-2cc1Nc1ccc(Cl)cc1`: the GI50 was 2.96 µM and the TGI is more than 100 µM.

Take `Cc1cc2c(cc1Cl)SC(=Nc1ccc(Cl)cc1)N(S(=O)(=O)c1ccccc1)S2(=O)=O`: the GI50 was 5.63 µM and the TGI is 17.4 µM.

Turning to `[Au+].[Au+].[Au+].[c-]1nccn1Cc1ccccc1.[c-]1nccn1Cc1ccccc1.[c-]1nccn1Cc1ccccc1`, the GI50 was 7.78 µM and the TGI was more than 19.7 µM.

Turning to `Cn1cc(C2=C(c3cn(CCCCCN)c4ccccc34)C(=O)NC2=O)c2ccccc21`, the GI50 was 9.64 µM and the TGI is more than 25 µM.

Regarding `CCCCC1(CN2CCOCC2)S/C(=N/c2nc(CC(=O)OCC)cs2)NC1=O` (stereo not given), the GI50 was 35.9 µM and the TGI is more than 100 µM.

`COc1ccc(OC)c2c(/C=C/c3ccc(N(C)C)cc3)ccnc12` yielded a TGI of more than 10 µM.

With `O=C(CSC(c1ccccc1)c1ccccc1)N/N=C/c1ccc(Cl)cc1Cl`, the GI50 was 42 µM and the TGI was more than 100 µM.

A further assay concerns SNB-19 CNS. Nature of the assay: NCI-60 cell line screen, 48 h.
In turn, `CC(C)CNC(=O)O` yielded a TGI of more than 100 µM.

For the compound `O=C(Nc1ccc(-n2cc(-c3ccncc3)c(-c3ccc(Cl)c(O)c3)n2)cc1)Nc1ccc(Cl)c(C(F)(F)F)c1`, the GI50 is 1.72 µM and the TGI came out at 4.7 µM.

With `Cc1cc(S(=O)(=O)N/N=C(\Sc2cc(Cl)c(C)cc2S(N)(=O)=O)c2ccc(Cl)cc2)c(Cl)cc1Cl`, the GI50 is more than 100 µM and the TGI was more than 100 µM.

For `COc1ccc(C(=O)COc2cccc(/C=C3\Oc4ccc5ccccc5c4C3=O)c2)cc1`, the GI50 is 15.5 µM and the TGI stood at 29.4 µM.

Take `N#CC(=NCCO)C1=C(O)c2ccccc2C1=O`: the TGI was more than 100 µM.

Regarding `CC(=O)/C=C/c1ccc(C#Cc2ccccc2)s1`, the GI50 is 12.7 µM and the TGI came out at 25.9 µM.

`CC(C)OC(=O)NNc1cc(Cl)ccc1Cl` yielded a TGI of more than 100 µM.

For `Cc1cc(C2CC(O)C(CO)O2)cc2c(=O)[nH]c(N)nc12` (stereo not given), the GI50 was more than 100 µM and the TGI was more than 100 µM.

Regarding `COc1cc2c(cc1O)C1Cc3ccc(OC)c(O)c3C(C2)N1C` (stereo not given), the TGI is more than 100 µM.

On to `COc1cccc(/C(COc2ccc3c(c2)oc(=O)c2cc(OC)ccc23)=N/O)c1`, for which the GI50 was 3.66 µM and the TGI is more than 100 µM.

Compound `N=C(N)SCc1cccc(-c2nc3ccccc3c(=O)o2)c1` came in with a TGI of more than 100 µM.

As to `CC(C)N=c1cc2n(-c3ccc(Cl)cc3)c3ccccc3nc-2cc1Nc1ccc(Cl)cc1`, the GI50 is 2.21 µM and the TGI was more than 50 µM.

For the compound `Cc1cc2c(cc1Cl)SC(=Nc1ccc(Cl)cc1)N(S(=O)(=O)c1ccccc1)S2(=O)=O`, the GI50 was 20.6 µM and the TGI is more than 100 µM.

On to `[Au+].[Au+].[Au+].[c-]1nccn1Cc1ccccc1.[c-]1nccn1Cc1ccccc1.[c-]1nccn1Cc1ccccc1`, for which the GI50 was 23.1 µM and the TGI was determined as 59 µM.

`Cn1cc(C2=C(c3cn(CCCCCN)c4ccccc34)C(=O)NC2=O)c2ccccc21`: the GI50 was more than 25 µM and the TGI was more than 25 µM.

Regarding `CCCCC1(CN2CCOCC2)S/C(=N/c2nc(CC(=O)OCC)cs2)NC1=O` (stereo not given), the GI50 is 38.4 µM and the TGI was more than 100 µM.

The compound `COc1ccc(OC)c2c(/C=C/c3ccc(N(C)C)cc3)ccnc12` gave a TGI of more than 10 µM.

A further assay has as its system SR leukemia. The experiment in a line: NCI-60 cell line screen, 48 h.
Compound `CC(C)CNC(=O)O` came in with a TGI of more than 100 µM.

Turning to `CCC(C)(C)c1ccc(OCCCCCCN2CCNCC2)cc1`, the GI50 is 1.25 µM and the TGI amounted to 3.71 µM.

Consider `Cc1cc(S(=O)(=O)N/N=C(\Sc2cc(Cl)c(C)cc2S(N)(=O)=O)c2ccc(Cl)cc2)c(Cl)cc1Cl`, for which the GI50 was 64.2 µM and the TGI was more than 100 µM.

`N#CC(=NCCO)C1=C(O)c2ccccc2C1=O`: the TGI was more than 100 µM.

Take `N=C(N)SCc1cccc(-c2nc3ccccc3c(=O)o2)c1`: the TGI is more than 100 µM.

Take `CC(C)N=c1cc2n(-c3ccc(Cl)cc3)c3ccccc3nc-2cc1Nc1ccc(Cl)cc1`: the GI50 was 2.48 µM and the TGI was more than 100 µM.

As to `Cc1cc2c(cc1Cl)SC(=Nc1ccc(Cl)cc1)N(S(=O)(=O)c1ccccc1)S2(=O)=O`, the GI50 was 0.342 µM and the TGI is more than 100 µM.

Regarding `CCCCC1(CN2CCOCC2)S/C(=N/c2nc(CC(=O)OCC)cs2)NC1=O` (stereo not given), the GI50 was 26.2 µM and the TGI was determined as 65.9 µM.

`O=C(CSC(c1ccccc1)c1ccccc1)N/N=C/c1ccc(Cl)cc1Cl`: the GI50 is 17 µM and the TGI amounted to 38.8 µM.

Another assay relates to SN12C renal. Nature of the assay: NCI-60 cell line screen, 48 h.
Compound `CC(C)CNC(=O)O` gave a TGI of more than 100 µM.

For `CCC(C)(C)c1ccc(OCCCCCCN2CCNCC2)cc1`, the GI50 is 3.48 µM and the TGI is 13.5 µM.

In the case of `O=C(Nc1ccc(-n2cc(-c3ccncc3)c(-c3ccc(Cl)c(O)c3)n2)cc1)Nc1ccc(Cl)c(C(F)(F)F)c1`, the GI50 is 1.59 µM and the TGI is 3.86 µM.

For the compound `Cc1cc(S(=O)(=O)N/N=C(\Sc2cc(Cl)c(C)cc2S(N)(=O)=O)c2ccc(Cl)cc2)c(Cl)cc1Cl`, the GI50 is 97.2 µM and the TGI was more than 100 µM.

As to `COc1ccc(C(=O)COc2cccc(/C=C3\Oc4ccc5ccccc5c4C3=O)c2)cc1`, the GI50 was 1.76 µM and the TGI came out at 3.85 µM.

For the compound `N#CC(=NCCO)C1=C(O)c2ccccc2C1=O`, the TGI is more than 100 µM.

In the case of `CC(=O)/C=C/c1ccc(C#Cc2ccccc2)s1`, the GI50 was 17.1 µM and the TGI came to 31.4 µM.

For the compound `CC(C)OC(=O)NNc1cc(Cl)ccc1Cl`, the TGI was more than 100 µM.

Consider `Cc1cc(C2CC(O)C(CO)O2)cc2c(=O)[nH]c(N)nc12` (stereo not given), for which the GI50 was more than 100 µM and the TGI is more than 100 µM.

Consider `COc1cc2c(cc1O)C1Cc3ccc(OC)c(O)c3C(C2)N1C` (stereo not given), for which the TGI is more than 100 µM.

For `COc1cccc(/C(COc2ccc3c(c2)oc(=O)c2cc(OC)ccc23)=N/O)c1`, the GI50 is 14.2 µM and the TGI was more than 100 µM.

`N=C(N)SCc1cccc(-c2nc3ccccc3c(=O)o2)c1`: the TGI was more than 100 µM.

As to `CC(C)N=c1cc2n(-c3ccc(Cl)cc3)c3ccccc3nc-2cc1Nc1ccc(Cl)cc1`, the GI50 is 0.92 µM and 2.74 µM; the TGI was more than 100 µM.

In the case of `Cc1cc2c(cc1Cl)SC(=Nc1ccc(Cl)cc1)N(S(=O)(=O)c1ccccc1)S2(=O)=O`, the GI50 is 13.8 µM and the TGI was found to be 28.7 µM.

Consider `[Au+].[Au+].[Au+].[c-]1nccn1Cc1ccccc1.[c-]1nccn1Cc1ccccc1.[c-]1nccn1Cc1ccccc1`, for which the GI50 is 8.42 µM and the TGI was 55.3 µM.

Turning to `Cn1cc(C2=C(c3cn(CCCCCN)c4ccccc34)C(=O)NC2=O)c2ccccc21`, the GI50 is 9.33 µM and the TGI is more than 25 µM.

Regarding `CCCCC1(CN2CCOCC2)S/C(=N/c2nc(CC(=O)OCC)cs2)NC1=O` (stereo not given), the GI50 was 35.8 µM and the TGI was more than 100 µM.

As to `COc1ccc(OC)c2c(/C=C/c3ccc(N(C)C)cc3)ccnc12`, the TGI is more than 10 µM.

For the compound `O=C(CSC(c1ccccc1)c1ccccc1)N/N=C/c1ccc(Cl)cc1Cl`, the GI50 was 15.7 µM and the TGI came to 29.9 µM.

The next assay concerns U251 CNS. The experiment in a line: NCI-60 cell line screen, 48 h.
With `CC(C)CNC(=O)O`, the TGI was more than 100 µM.

For `CCC(C)(C)c1ccc(OCCCCCCN2CCNCC2)cc1`, the GI50 was 1.68 µM and the TGI was found to be 3.45 µM.

For `O=C(Nc1ccc(-n2cc(-c3ccncc3)c(-c3ccc(Cl)c(O)c3)n2)cc1)Nc1ccc(Cl)c(C(F)(F)F)c1`, the GI50 was 1.08 µM and the TGI amounted to 2.32 µM.

Turning to `Cc1cc(S(=O)(=O)N/N=C(\Sc2cc(Cl)c(C)cc2S(N)(=O)=O)c2ccc(Cl)cc2)c(Cl)cc1Cl`, the GI50 was 53.1 µM and the TGI is more than 100 µM.

Regarding `COc1ccc(C(=O)COc2cccc(/C=C3\Oc4ccc5ccccc5c4C3=O)c2)cc1`, the GI50 is 6.42 µM and the TGI was found to be 19.6 µM.

For the compound `N#CC(=NCCO)C1=C(O)c2ccccc2C1=O`, the TGI is more than 100 µM.

As for `CC(=O)/C=C/c1ccc(C#Cc2ccccc2)s1`, the GI50 was 16.8 µM and the TGI is 30.5 µM.

The compound `CC(C)OC(=O)NNc1cc(Cl)ccc1Cl` yielded a TGI of more than 100 µM.

For the compound `Cc1cc(C2CC(O)C(CO)O2)cc2c(=O)[nH]c(N)nc12` (stereo not given), the GI50 is more than 100 µM and the TGI is more than 100 µM.

`COc1cc2c(cc1O)C1Cc3ccc(OC)c(O)c3C(C2)N1C` (stereo not given) returned a TGI of more than 100 µM.

`COc1cccc(/C(COc2ccc3c(c2)oc(=O)c2cc(OC)ccc23)=N/O)c1`: the GI50 is 4.35 µM and the TGI is more than 100 µM.

`N=C(N)SCc1cccc(-c2nc3ccccc3c(=O)o2)c1`: the TGI is more than 100 µM.

Regarding `CC(C)N=c1cc2n(-c3ccc(Cl)cc3)c3ccccc3nc-2cc1Nc1ccc(Cl)cc1`, the GI50 was 1.07 µM and 3.11 µM; the TGI is more than 100 µM.

For the compound `Cc1cc2c(cc1Cl)SC(=Nc1ccc(Cl)cc1)N(S(=O)(=O)c1ccccc1)S2(=O)=O`, the GI50 is 5.96 µM and the TGI amounted to 19.5 µM.

Consider `[Au+].[Au+].[Au+].[c-]1nccn1Cc1ccccc1.[c-]1nccn1Cc1ccccc1.[c-]1nccn1Cc1ccccc1`, for which the GI50 was 9.03 µM.

In the case of `Cn1cc(C2=C(c3cn(CCCCCN)c4ccccc34)C(=O)NC2=O)c2ccccc21`, the GI50 was 10.8 µM and the TGI is more than 25 µM.

As for `CCCCC1(CN2CCOCC2)S/C(=N/c2nc(CC(=O)OCC)cs2)NC1=O` (stereo not given), the GI50 was 33.9 µM and the TGI is more than 100 µM.

As to `COc1ccc(OC)c2c(/C=C/c3ccc(N(C)C)cc3)ccnc12`, the TGI was more than 10 µM.

On to `O=C(CSC(c1ccccc1)c1ccccc1)N/N=C/c1ccc(Cl)cc1Cl`, for which the GI50 was 24 µM and the TGI was 67.3 µM.
